Data set [1] is described as follows: Thermodynamic relationship between Form 1 and Form 2 calculated from DSC melting data (method of Lian Yu). Type of data set: physicochemical. Particulars: for transition temperature: Form 2 T=110.35° C., ΔH=83.43 J/g; for thermodynamic relationship between the polymorphs (monotropic or enantiotropic): based on DSC data. As for the experimental part:
For a polymorphic substance, a property of particular interest is the relative thermodynamic stability of the polymorphs. The questions to be answered are the following:
b) for an enantiotropic system, where (Tt) lies.
The thermodynamic relationship between Form 1 and Form 2 of compound of Formula (I) was calculated using the melting data of polymorphs measured by DSC, according to what disclosed in: Lian Yu, Journal of Pharmaceutical Science, Vol. 84, No. 8, August 1995.
Taking samples of Form 1 and Form 2 as pure forms 1 and 2 respectively, and using the melting point and the ΔH obtainable by DSC data, it was possible to calculate the thermodynamic relationship and the transition temperature.
The above calculation has been performed using DSC data for a different sample of polymorph Form 1 of compound of Formula (I), showing the Differential Scanning Calorimetry (DSC) thermogram of FIG. 7, obtained by the same method discussed above.

Data set [2] can be described thus: Slurry conversion of a mixture of the two polymorphs, solid examined by XRPD. It is filed as physicochemical. The following applies: 20.4 mg Form 1 + 21.3 mg Form 2 in saturated ethyl acetate/heptane=1/2 solution of Form 1, stirred at RT one day. As for the experimental part:
A saturated solution in ethyl acetate/heptane=½ of Form 1 of compound of Formula (I) (25 mg in 400 μL) was prepared.
20.4 mg of solid Form 1 of compound of Formula (I) were mixed with 21.3 mg of solid Form 2 of compound of Formula (I). That solid mixture was added to the above saturated solution. The slurry so obtained was stirred at RT one day long. The day after, the solid and liquid phase were separated by centrifugation, and the solid was simply left on air in order to dry and then examined by XPRD.

Setting [3] is: Form 1 sample of FIG. 6 (T=102.44° C., ΔH=71.18 J/g).
Setting [4] is: Form 1 sample of FIG. 7 (T=100.09° C., ΔH=75.46 J/g).

With `CC[C@H](Nc1cc(C)nc2c(-c3ccc(OC)cc3C)c(C)nn12)c1nc(C)no1` [Form 1, [3-(4-Methoxy-2-methyl-phenyl)-2,5-dimethyl-pyrazolo[1,5-a]pyrimidin-7-yl]-[(S)-1-(3-methyl-[1,2,4]oxadiazol-5-yl)-propyl]-amine], the transition temperature was 177 °C in data set [1] (setting [3]) and 356 °C in data set [1] (setting [4]). Besides, the “thermodynamic relationship between the polymorphs (monotropic or enantiotropic)” value in data set [1] is listed as “monotropic relationship”.

Regarding `CC[C@H](Nc1cc(C)nc2c(-c3ccc(OC)cc3C)c(C)nn12)c1nc(C)no1` [Form 2, [3-(4-methoxy-2-methyl-phenyl)-2,5-dimethyl-pyrazolo[1,5-a]pyrimidin-7-yl]-[(S)-1-(3-methyl-[1,2,4]oxadiazol-5-yl)-propyl]-amine], the transition temperature in data set [1] (setting [3]) is 177 °C; in data set [1] (setting [4]), 356 °C. The “thermodynamic relationship between the polymorphs (monotropic or enantiotropic)” value in data set [1] was “monotropic relationship”. Besides, the “solid form after slurrying a mixture of Form 1 and Form 2” value in data set [2] is recorded as “the solid was only constituted by Form 2”.
